In US12011439B2, “Combination therapy using C—C chemokine receptor 4 (CCR4) antagonists and one or more immune checkpoint inhibitors” (CHEMOCENTRYX, INC., priority 2018, dated 2024):
pIC50: −log10 of the molar value.

How the values were obtained:
Type in all cases: cell-based
[1] = Compound 1 selectivity panel, buffer IC50; conditions: Receptor CCR12
Description: (§1) The selectivity of Compound 1 was tested by determining the IC50 value against a diverse panel of receptors, enzymes, and ion channels. […] See, Table 1.

[2] = target: T1, CCR1 (Homo sapiens, UniProt P32246); assay: Compound 1 selectivity panel, buffer IC50; conditions: Receptor CCR1
T1 sequence (P32246 1-355): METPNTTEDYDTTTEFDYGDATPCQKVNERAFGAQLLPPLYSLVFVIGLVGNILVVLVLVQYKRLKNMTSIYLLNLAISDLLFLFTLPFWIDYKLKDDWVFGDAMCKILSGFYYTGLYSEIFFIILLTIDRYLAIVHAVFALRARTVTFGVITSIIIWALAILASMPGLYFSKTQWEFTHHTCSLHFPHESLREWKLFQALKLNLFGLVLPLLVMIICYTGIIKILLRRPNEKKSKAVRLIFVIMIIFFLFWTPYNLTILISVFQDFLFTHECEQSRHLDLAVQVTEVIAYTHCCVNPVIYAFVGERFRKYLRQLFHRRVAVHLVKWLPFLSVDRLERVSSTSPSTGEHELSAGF
Description: as §1

[3] = target: T2, CCR10 (Homo sapiens, UniProt P46092); assay: Compound 1 selectivity panel, buffer IC50; conditions: Receptor CCR10
T2 sequence (P46092 1-362): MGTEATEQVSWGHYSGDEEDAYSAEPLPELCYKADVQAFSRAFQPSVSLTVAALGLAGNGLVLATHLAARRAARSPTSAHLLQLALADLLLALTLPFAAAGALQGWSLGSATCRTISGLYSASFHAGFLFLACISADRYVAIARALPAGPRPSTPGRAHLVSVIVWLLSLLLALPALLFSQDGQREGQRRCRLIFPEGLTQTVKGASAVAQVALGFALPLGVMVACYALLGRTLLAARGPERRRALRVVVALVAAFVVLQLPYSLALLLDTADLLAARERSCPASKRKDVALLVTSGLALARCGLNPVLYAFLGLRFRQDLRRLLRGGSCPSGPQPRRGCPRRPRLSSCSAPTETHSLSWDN
Description: as §1

[4] = target: CCR2 (Homo sapiens, UniProt P41597); assay: Compound 1 selectivity panel, buffer IC50; conditions: Receptor CCR2
Description: as §1

[5] = target: CCR5 (Homo sapiens, UniProt P51681); assay: Compound 1 selectivity panel, buffer IC50; conditions: Receptor CCR5
Description: as §1

[6] = target: T3, CCR7 (Homo sapiens, UniProt P32248); assay: Compound 1 selectivity panel, buffer IC50; conditions: Receptor CCR7
T3 sequence (P32248 25-378): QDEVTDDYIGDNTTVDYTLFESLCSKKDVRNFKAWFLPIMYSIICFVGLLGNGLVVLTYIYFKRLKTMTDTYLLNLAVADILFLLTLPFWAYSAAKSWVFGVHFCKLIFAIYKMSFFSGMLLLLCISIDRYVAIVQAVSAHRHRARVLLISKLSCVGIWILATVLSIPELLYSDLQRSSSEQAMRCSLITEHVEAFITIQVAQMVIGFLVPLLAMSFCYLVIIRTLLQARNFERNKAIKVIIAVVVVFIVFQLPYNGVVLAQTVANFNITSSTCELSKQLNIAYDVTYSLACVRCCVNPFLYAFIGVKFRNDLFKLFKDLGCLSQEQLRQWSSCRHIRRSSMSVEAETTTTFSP
Description: as §1

[7] = target: CCR8 (Homo sapiens, UniProt P51685); assay: Compound 1 selectivity panel, buffer IC50; conditions: Receptor CCR8
Description: as §1

[8] = target: T4, CXCR1 (Homo sapiens, UniProt P25024); assay: Compound 1 selectivity panel, buffer IC50; conditions: Receptor CXCR1
T4 sequence (P25024 1-350): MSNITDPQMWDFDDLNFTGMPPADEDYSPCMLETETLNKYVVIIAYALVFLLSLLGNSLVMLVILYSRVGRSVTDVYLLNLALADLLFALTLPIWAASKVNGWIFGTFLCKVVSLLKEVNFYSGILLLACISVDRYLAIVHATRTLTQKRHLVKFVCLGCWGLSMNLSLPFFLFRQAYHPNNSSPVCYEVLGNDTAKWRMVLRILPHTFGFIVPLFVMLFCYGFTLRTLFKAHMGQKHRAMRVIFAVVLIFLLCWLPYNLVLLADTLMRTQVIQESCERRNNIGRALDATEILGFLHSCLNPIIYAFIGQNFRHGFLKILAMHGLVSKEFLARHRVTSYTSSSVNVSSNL
Description: as §1

[9] = target: T5, CXCR2 (Homo sapiens, UniProt P25025); assay: Compound 1 selectivity panel, buffer IC50; conditions: Receptor CXCR2
T5 sequence (P25025 1-360): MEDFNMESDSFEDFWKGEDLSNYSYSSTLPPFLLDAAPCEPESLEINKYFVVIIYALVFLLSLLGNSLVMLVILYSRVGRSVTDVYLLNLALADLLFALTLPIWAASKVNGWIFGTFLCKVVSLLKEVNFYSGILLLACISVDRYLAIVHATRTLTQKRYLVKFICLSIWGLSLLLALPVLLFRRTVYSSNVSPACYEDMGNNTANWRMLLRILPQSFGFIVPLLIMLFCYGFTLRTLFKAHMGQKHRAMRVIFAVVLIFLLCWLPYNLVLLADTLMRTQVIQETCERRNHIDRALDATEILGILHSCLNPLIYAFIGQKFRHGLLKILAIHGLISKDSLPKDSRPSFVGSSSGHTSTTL
Description: as §1

[10] = target: T6, CXCR3 (Homo sapiens, UniProt P49682); assay: Compound 1 selectivity panel, buffer IC50; conditions: Receptor CXCR3
T6 sequence (P49682 1-368): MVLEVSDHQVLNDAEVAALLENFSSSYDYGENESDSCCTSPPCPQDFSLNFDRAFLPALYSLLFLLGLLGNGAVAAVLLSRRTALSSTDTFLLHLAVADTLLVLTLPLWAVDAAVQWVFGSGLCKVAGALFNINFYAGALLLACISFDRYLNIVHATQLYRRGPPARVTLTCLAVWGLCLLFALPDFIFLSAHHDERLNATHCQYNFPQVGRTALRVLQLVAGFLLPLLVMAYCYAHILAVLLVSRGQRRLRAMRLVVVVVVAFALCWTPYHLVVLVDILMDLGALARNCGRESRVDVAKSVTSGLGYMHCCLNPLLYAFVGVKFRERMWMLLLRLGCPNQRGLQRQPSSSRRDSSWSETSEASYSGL
Description: as §1

[11] = target: CXCR4 (Homo sapiens, UniProt P61073); assay: Compound 1 selectivity panel, buffer IC50; conditions: Receptor CXCR4
Description: as §1

[12] = target: CXCR6 (Homo sapiens, UniProt O00574); assay: Compound 1 selectivity panel, buffer IC50; conditions: Receptor CXCR6
Description: as §1

[13] = target: CXCR7 (Homo sapiens, UniProt P25106); assay: Compound 1 selectivity panel, buffer IC50; conditions: Receptor CXCR7
Description: as §1

Measured: pIC50

CCR5, sequence (P51681 whole entry, species assumed): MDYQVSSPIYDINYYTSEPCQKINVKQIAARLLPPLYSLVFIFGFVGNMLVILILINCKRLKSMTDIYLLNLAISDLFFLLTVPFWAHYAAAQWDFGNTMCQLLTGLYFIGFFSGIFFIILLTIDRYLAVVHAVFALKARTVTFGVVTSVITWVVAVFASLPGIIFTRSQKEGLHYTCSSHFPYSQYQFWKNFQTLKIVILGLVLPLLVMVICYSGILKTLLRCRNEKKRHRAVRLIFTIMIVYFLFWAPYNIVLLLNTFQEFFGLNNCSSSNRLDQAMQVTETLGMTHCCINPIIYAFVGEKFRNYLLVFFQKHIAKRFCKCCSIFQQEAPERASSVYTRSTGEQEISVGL
CCR8, sequence (P51685 whole entry, species assumed): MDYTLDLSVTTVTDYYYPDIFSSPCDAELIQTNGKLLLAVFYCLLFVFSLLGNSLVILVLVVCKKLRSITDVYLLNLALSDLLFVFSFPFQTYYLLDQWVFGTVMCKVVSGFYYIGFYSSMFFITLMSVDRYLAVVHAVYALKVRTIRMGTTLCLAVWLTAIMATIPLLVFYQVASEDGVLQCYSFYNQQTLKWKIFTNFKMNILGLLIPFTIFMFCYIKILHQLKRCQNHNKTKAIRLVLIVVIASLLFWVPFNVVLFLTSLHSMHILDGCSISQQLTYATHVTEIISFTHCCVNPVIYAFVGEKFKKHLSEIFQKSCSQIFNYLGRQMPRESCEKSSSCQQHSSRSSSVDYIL
CCR2, sequence (P41597 whole entry, species assumed): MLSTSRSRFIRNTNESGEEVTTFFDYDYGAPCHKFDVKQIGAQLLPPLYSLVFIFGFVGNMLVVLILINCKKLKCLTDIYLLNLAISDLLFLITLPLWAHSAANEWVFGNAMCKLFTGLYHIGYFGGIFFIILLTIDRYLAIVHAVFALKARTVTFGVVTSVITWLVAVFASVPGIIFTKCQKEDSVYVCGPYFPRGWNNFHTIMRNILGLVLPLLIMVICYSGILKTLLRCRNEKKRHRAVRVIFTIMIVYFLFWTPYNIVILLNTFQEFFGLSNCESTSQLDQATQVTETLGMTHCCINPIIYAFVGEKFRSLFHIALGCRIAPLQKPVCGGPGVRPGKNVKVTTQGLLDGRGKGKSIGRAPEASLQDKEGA
CXCR6, sequence (O00574 whole entry, species assumed): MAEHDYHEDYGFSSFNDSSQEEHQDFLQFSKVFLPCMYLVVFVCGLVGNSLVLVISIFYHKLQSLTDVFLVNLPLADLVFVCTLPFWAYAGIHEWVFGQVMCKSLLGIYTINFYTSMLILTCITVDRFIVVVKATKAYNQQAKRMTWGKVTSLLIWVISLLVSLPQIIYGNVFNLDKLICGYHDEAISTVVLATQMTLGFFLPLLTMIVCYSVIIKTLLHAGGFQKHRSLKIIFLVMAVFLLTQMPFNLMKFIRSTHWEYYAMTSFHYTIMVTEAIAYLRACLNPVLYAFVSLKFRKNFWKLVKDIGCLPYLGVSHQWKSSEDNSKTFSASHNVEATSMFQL
CXCR7, sequence (P25106 whole entry, species assumed): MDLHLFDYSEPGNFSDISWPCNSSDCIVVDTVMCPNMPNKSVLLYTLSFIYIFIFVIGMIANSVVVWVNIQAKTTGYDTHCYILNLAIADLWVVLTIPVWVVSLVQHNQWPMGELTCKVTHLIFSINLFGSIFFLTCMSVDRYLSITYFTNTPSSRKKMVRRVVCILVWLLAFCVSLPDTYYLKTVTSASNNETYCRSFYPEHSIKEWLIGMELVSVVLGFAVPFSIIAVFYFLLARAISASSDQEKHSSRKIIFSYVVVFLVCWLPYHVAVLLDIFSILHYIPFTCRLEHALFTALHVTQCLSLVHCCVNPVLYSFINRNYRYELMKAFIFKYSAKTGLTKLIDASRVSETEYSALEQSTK
CXCR4, sequence (P61073 whole entry, species assumed): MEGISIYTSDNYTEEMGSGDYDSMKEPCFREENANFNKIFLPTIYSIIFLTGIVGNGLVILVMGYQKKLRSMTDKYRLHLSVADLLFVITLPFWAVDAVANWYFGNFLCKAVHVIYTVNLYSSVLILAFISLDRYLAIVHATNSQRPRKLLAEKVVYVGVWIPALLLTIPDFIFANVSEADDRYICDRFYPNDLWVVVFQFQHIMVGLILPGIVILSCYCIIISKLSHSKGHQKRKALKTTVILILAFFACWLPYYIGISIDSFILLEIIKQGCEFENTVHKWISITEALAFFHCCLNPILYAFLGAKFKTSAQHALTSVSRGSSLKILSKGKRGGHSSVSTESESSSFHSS

C[C@@H](Nc1cc(C2CCN([C@H]3CCCN(CCC(=O)O)C3)CC2)ccc1Cl)c1ccc(Cl)cc1Cl [Compound 1]
< 5.00: [1] | [2] | [3] | [4] | [5] | [6] | [7] | [8] | [9] | [10] | [11] | [12] | [13]
